Measured values published in patent publication US9222093B2, “Two-way, portable riboswitch mediated gene expression control device” (THE UNIVERSITY OF HONG KONG, priority 2011, dated 2015).

Assays:
rpoS gene locus = test: Acid survival of ON-lacI-rpoS strain (pH 2.0, 2 hours); assay type: cell-based, E. coli
Text: The ON-lacI-LacIbs cassette (2500 bp) from the genome of the strain carrying the ON riboswitch of lacI is amplified using […]. Cassette 602 is composed of the cat gene, the ON-lacI riboswitch, the lacI gene, and the lacI-lacZ intergenic region containing two LacIbs. The cat gene facilitates integration of this cassette immediately upstream of any target gene via recombineering. The riboswitch cassette was inserted upstream of the ribosomal binding site of rpoS gene locus […] (FIG. 6A). Next, the native lacI was deleted from this strain, generating a new mutant strain, ON-lacI-rpoS. This strain was used to test whether rpoS gene locus 606 could be controlled by the theophylline-responsive and LacI-repressible regulation cassette 602. Since rpoS is required for acid resistance, survival of strain […] under acidic conditions was assayed. Overnight cultures were treated with acid (pH 2.0) for 2 hours, and then serially diluted in neutral medium. After culturing overnight, colony forming units (CFU) of acid-treated and untreated cells were determined Acid survival (%) was calculated using the formula: Acid survival (%)=100×(CFU of treated/CFU of untreated).

ON-lacI-rpoS cells = test: Extracellular acetate assimilation; assay type: cell-based, E. coli
Text: (§1) Bacterial cells switch from rapid growth during which they produce and excrete acetate (dissimilation) in the presence of abundant nutrients to slower growth supported by the import and utilization of the excreted acetate (assimilation) when glucose is exhausted. This physiological event is defined as an acetate switch, a survival response allowing cells to compete successfully during carbon starvation. It was previously reported that RpoS positively regulates consumption of acetate by activating the expression of acetyl-coenzyme A synthetase enzyme (Acs). However, the opposite results were obtained with ON-lacI-rpoS construction provided herein. […] When grown in the presence of theophylline (2 mM) and absence of IPTG, rpoS expression was shut off and accordingly, acetate assimilation was accelerated (FIG. 8A). […] The enhanced acetate assimilation was also observed with the newly constructed rpoS gene locus null mutant, shown in graph 804 (FIG. 8B). […] It is therefore apparent that RpoS represses acetate assimilation.

CsrB locus = test: Autoaggregation and biofilm formation of ON-lacI strain harboring pLacIb-CsrB; assay type: cell-based, E. coli
Text: CsrB locus 706 has previously been cloned into a high copy vector (plasmid) 704. Two LacIbs 112 were inserted around the transcriptional start site to place expression of CsrB locus 706 under the control of ON-lacI riboswitch 302. Since one LacIb is after the transcriptional start site, the resulting CsrB differs slightly from the native one by the extra 21 nt-sequence (i.e. LacIb). […] This CsrB-carrying vector 704 was introduced into the ON-lacI strain, and autoaggregation and biofilm formation were examined.
To measure autoaggregation, overnight cultures were diluted 1:500 and incubated at 37° C., with shaking at 220 rpm, in liquid LB medium. When cells aggregated (visualized macroscopically by the clumping or ‘fluffing’ of cells in liquid cultures), 100 μl of each cell suspension was transferred to flat-bottom 96-well plates (Iwaki, Tokyo, Japan) and the images of the cell aggregates were captured by scanning. To better visualize the cell aggregates, 1 μl of crystal violet (0.1%) was added to each cell suspension immediately prior to image capture. Cellular autoaggregation was also examined microscopically. Cell suspensions were spread on a microscope slide, heat-fixed, stained with DAPI (4′6-diamidino-2-phenylindol), and imaged using a fluorescence stereomicroscope SZX12 (Olympus, Tokyo, Japan) with DAPI filter sets.
Biofilms were formed on polystyrene, flat-bottom 96-well microtiter plates (Iwaki, Tokyo, Japan). 200 μl of each cell suspension (10^5 cells/ml) was transferred into each well of a microtiter plate, and incubated for 24 h at 37° C. in a shaker at 75 rpm. Resulting biofilms were washed thrice with PBS and air dried. Then, biofilms were stained with […] of 0.4% aqueous crystal violet solution for 15 min. Next, biofilms were washed three times with sterile distilled water and immediately destained with 200 μl of 95% ethanol. After 30 min of destaining, 100 μl of destaining solution was transferred to a new well and measured with a microtiter plate reader (SpectraMAX®340 Tunable Microplate Reader; Molecular Devices Ltd.) at 595 nm.

wild type strain = test: Extracellular acetate assimilation, wild type strain; assay type: cell-based, E. coli; conditions: data not shown
Text: as §1

LacI repressor protein = target: T1, LacI repressor protein (Escherichia coli, UniProt P03023); test: β-galactosidase assay of lacZ in cells carrying ON-lacI riboswitch and intact lacZ (IPTG arm of two-way control); assay type: cell-based, E. coli MG1655; conditions: medium containing 1600 μM theophylline
T1 construct: ON-lacI riboswitch 302 was incorporated into the chromosome upstream from intact lad gene (i.e., not fused with lacZ); endogenous in cells; host or cells: E. coli MG1655 derivative with ON-lacI riboswitch on the chromosome and intact lacZ locus
Text: (§2) The loxP-cat-loxP selectable cassette was inserted immediately after the stop codon of the lacZ gene on the MG1655 chromosome using recombineering methods. Next, the lacZ-loxP-cat-loxP cassette was PCR amplified and inserted (in frame) immediately prior to the stop codon of the target gene on the chromosome. The inserted lacZ fragment started from the 8th codon of the lacZ gene, and was co-transcribed and translated with the fused genes. The expression of gene-lacZ fusions was quantified using a β-galactosidase assay. Levels of β-galactosidasewere calculated using the following formula: units (U)=[…]
ON-lacI riboswitch 302 makes two-way gene regulation possible because the Lad repressor protein can be inactivated by isopropyl β-D-1-thiogalactopyranoside (IPTG). Thus, adding theophylline to the culture medium switches on lacI translation, and transcriptionally represses the target genes of LacI. In contrast. IPTG inactivates LacI by binding to the protein and derepresses transcription of the target genes.
Two-way control was verified by determining β-galactosidase levels of the cells carrying both ON-lacI riboswitch 302 and an intact lacZ gene locus. Theophylline and IPTG regulated lacZ in opposite directions in a concentration-dependent manner (graph 312, FIG. 3D). The effective concentration range of theophylline was 100-1600 μM. […]

ON-lacI riboswitch = test: β-galactosidase assay of lacZ in cells carrying ON-lacI riboswitch and intact lacZ (theophylline arm of two-way control); assay type: cell-based, E. coli MG1655
Text: as §2
ON-lacI riboswitch 302 was incorporated into the chromosome upstream from intact lad gene (i.e., not fused with lacZ). The LacI protein represses expression of lacZ so that ON riboswitch 302 indirectly switches off lacZ in response to theophylline.
Two-way control was verified by determining β-galactosidase levels of the cells carrying both ON-lacI riboswitch 302 and an intact lacZ gene locus. Theophylline and IPTG regulated lacZ in opposite directions in a concentration-dependent manner (graph 312, FIG. 3D). The effective concentration range of theophylline was 100-1600 μM. […] When IPTG was added to the medium containing 1600 μM theophylline, lacZ was derepressed. The effective range of IPTG was 0.16-40 μM.

ON-crp strain = test: Motility of ON-crp strain on semisolid motility plates; assay type: cell-based, E. coli MG1655; conditions: theophylline ligand added; increased with higher theophylline concentrations
Experimental: The motility phenotype of the ON-crp strain was assayed to further confirm the effectiveness of the ON-riboswitch.

lacI-lacZ fusion = test: β-galactosidase assay of lacI-lacZ translational fusion; assay type: cell-based, E. coli MG1655; conditions: E. coli mutant containing ON-lacI riboswitch; with vs without theophylline
Text: as §2
To engineer an ON-riboswitch of the lacI gene, riboswitch cassette 302, cat-aptamer-linker-random sequence, was integrated upstream of the ribosomal binding site of lacI-lacZ usion 304 on the chromosome using standard recombineering methods (FIG. 3A).
The resulting mutant collection was grown on X-gal plates 306 in the absence of theophylline. Approximately 2000 colonies were screened for color. Two white clones were identified. […]

[1] = in the presence of theophylline

T1 sequence (P03023 whole entry, the tested form may be a part): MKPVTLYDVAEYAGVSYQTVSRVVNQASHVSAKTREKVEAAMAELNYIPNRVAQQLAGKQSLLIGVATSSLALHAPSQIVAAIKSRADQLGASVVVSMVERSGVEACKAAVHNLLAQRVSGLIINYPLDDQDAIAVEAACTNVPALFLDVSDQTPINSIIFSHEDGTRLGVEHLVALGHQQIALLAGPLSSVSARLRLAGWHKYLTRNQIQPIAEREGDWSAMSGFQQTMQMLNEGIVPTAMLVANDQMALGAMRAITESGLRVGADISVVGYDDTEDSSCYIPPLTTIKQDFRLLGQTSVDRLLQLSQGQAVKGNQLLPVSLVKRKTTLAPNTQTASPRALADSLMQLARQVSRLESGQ

Compound	acid survival (rpoS gene locus; 40 μM IPTG in medium containing 1600 μM theophylline)	acetate assimilation (ON-lacI-rpoS cells; IPTG 1 mM added to the theophylline medium)	autoaggregation and biofilm formation (CsrB locus; IPTG added together with theophylline)	effect on acetate assimilation in the wild type strain (wild type strain)	effective range of IPTG (lacZ derepression) (LacI repressor protein)	lacZ expression in the presence of theophylline (ON-lacI riboswitch; ON-lacI combined with LacIbs upstream from lacZ)	effective concentration range of theophylline (lacZ regulation) (ON-lacI riboswitch; cells carrying ON-lacI riboswitch and intact lacZ, repression, saturation above the range)	lacZ regulation at theophylline concentrations less than 100 μM (ON-lacI riboswitch; theophylline less than 100 μM)	acid survival (rpoS gene locus; 1600 μM theophylline)	acetate assimilation (ON-lacI-rpoS cells; theophylline 2 mM, absence of IPTG)	motility (ON-crp strain)	autoaggregation (CsrB locus; [1])	biofilm formation (CsrB locus; [1])	LacI levels in the presence of the ligand (lacI-lacZ fusion)
CC(C)S[C@@H]1O[C@H](CO)[C@H](O)[C@H](O)[C@H]1O [IPTG, isopropyl β-D-1-thiogalactopyranoside]	restored to the wild-type levels	restored to the wild-type levels	restored	Neither theophylline nor IPTG had any effect	0.16 to 40 µM									
Cn1c(=O)c2[nH]cnc2n(C)c1=O [theophylline]				Neither theophylline nor IPTG had any effect		almost completely repressed	100 to 1600 µM	little regulation	comparable to that of an rpoS null mutant	accelerated	gained motility	negative with respect to autoaggregation	low levels of biofilms	one fold-increase
